{"source": "patent US5348980A", "about": "“Enantiomers derived from (S)-2-amino-2-(3,4-dichlorobenzyl)-1-propanol, their use and method of preparation” (Institute de Recherche Jouveinal, priority 1992, dated 1994)", "test_system": "bronchoconstriction caused by 100 nmol/kg of histamine", "assay": "Histamine-induced bronchoconstriction test (Konzett and Rossler), intranasal-powder (In.P.) administration", "assay_type": "in vivo, guinea pigs", "text": "Furthermore, the antihistaminic properties were studied in guinea pigs by the bronchoconstriction test performed according to the method of H. Konzett and R. Rossler (Arch. Exp. Path. Pharmak.--Naunym Schmiedeberg - 195, 71-74, 1940). The products of the invention were studied in this test after administration in solution or in suspension via the intravenous and intraduodenal routes, and also in powder form via the intranasal route. Irrespective of the administration route, the preparation of the animals employed in the test consists in first anesthetizing male guinea pigs weighing 350 to 400 g by intraperitoneal (i.p.) injection of a sterile and isotonic solution containing 25% (w/v.) of ethyl carbamate on the basis of 6.0 ml/kg, and in then fitting the animals with a tracheal cannula to permit measurement of the pulmonary pressure, a cannula in the right jugular vein for the intravenous (i.v.) administration of solution, and also a cannula in the left carotid artery for qualitative observation of the blood pressure. The animals are then connected to a pump (Harvard, ref. 50-1718) in order to maintain an artificial ventilation at a frequency of 60 insufflations per minute; the intratracheal pressure is recorded by an assembly comprising a transducer, an amplifier and a recorder (Gould, respective refs.: PLOEZ, 13-4615-50 and 8188-[…]-06). Fitted in this way, the animals are left undisturbed for 10 minutes before the beginning of the actual experiment, which is carried out in different ways according to the administration route envisaged. c) intranasal-powder (In.p) administration The test product is administered via a nasal insufflation of a powder consisting of 20 mg of lactose loaded with the appropriate quantity of the test product. Before this insufflation, the artificial ventilation of the animal is momentarily stopped in order to facilitate the pulmonary penetration of the compound. […] Failing this expression, the results are expressed as a % change at the time in question and for a given concentration of the test product. […]", "note": "Structures can show the parent of a compound that is named as a salt.", "data": [{"smiles": "C=CCN(C)[C@](C)(CO)Cc1ccc(Cl)c(Cl)c1", "note": "[Example 2, base, (S)-(+)-N-allyl-2-methylamino-2-(3,4-dichlorobenzyl)-1-propanol]", "values": [{"measurement": "ED50", "setting": "Cavia porcellus, 5 min, t = 5 min, read-out: ED50 at t = 5 min, inhibition of histamine-induced bronchoconstriction", "result": 1.28, "unit": "µmol/kg"}]}, {"smiles": "C=CCN(C)[C@](C)(CO)Cc1ccc(Cl)c(Cl)c1", "note": "[Example 2, hydrochloride, (S)-(+)-N-allyl-2-methylamino-2-(3,4-dichlorobenzyl)-1-propanol]", "values": [{"measurement": "ED50 at t = 5 min, inhibition of histamine-induced bronchoconstriction", "result": 1.77, "unit": "µmol/kg"}]}]}
